From patent US9107909B2, “Materials and methods to enhance hematopoietic stem cells engraftment procedures” (priority 2008, dated 2015)
“And” between values parts separate entries of the source, which are not always exact repeats. Equal entries are not always repeated. “Also recorded” adds a separate entry of the source.

Key:
[1] = test system: long-term repopulating HSPC; assay: Limiting dilution competitive transplantation of ex vivo pulsed bone marrow; assay type: in vivo, mouse
Description: WBM cells (CD45.2) were treated on ice for 2 hours with either 1 microMolar dmPGE2 (Cayman Chemical, Ann Arbor, Mich.) per 1×10^6 cells or 0.01% ETOH in sterile, non-pyrogenic PBS. After incubation, cells were washed twice and mixed with 2×10^5 congenic CD45.1 competitor marrow cells at ratios of 0.075:1, 0.25:1, 1:1, and 2.5:1 and transplanted into lethally irradiated CD45.1 mice (1100-cGy split dose) by tail-vein injection (5 mice per dilution). CD45.1 and CD45.2 cells in PB were determined monthly by flow cytometry. For head-to-head competitive transplants, WBM from CD45.1 mice and CD45.2 mice were treated with vehicle or dmPGE2 and mixed with 2×10^5 competitor marrow cells from CD45.1/CD45.2 mice at ratios of 0.075:1, 0.25:1, 1:1, and 2.5:1 and transplanted into lethally irradiated CD45.1/CD45.2 mice. The proportion of CD45.1, CD45.2, and CD45.1/CD45.2 cells in PB was determined monthly. HSPC frequency was quantitated by Poisson statistics using L-CALC software (Stem Cell Technologies, Vancouver BC, Canada) with <5% contribution to chimerism considered a negative recipient. Competitive repopulating units (CRU) were calculated as described (Harrison, 1980). For secondary transplants, 2×10^6 WBM from previously transplanted F1 Hybrid mice at the 1:1 ratio at 20 weeks post-transplant were injected into lethally irradiated F1 Hybrid mice in non-competitive fashion and PB chimerism and tri-lineage reconstitution evaluated monthly.
Referring now to FIG. 1A, bone marrow from CD45.1 or CD45.2 mice were treated with vehicle or dmPGE2 respectively. CD45.1/CD45.2 hybrid marrow cells were used as competitors. Limiting dilutions were transplanted into lethally irradiated (1100 cGys, split dose) CD45.1/CD45.2 hybrid mice and chimerism in PB analyzed for 20 weeks. A representative flow plot detecting each cell population is shown (bottom panel).
Referring now to FIG. 1B, frequency analysis (top) for vehicle (red) or dmPGE2 (blue) pulsed cells, determined by Poisson statistics, at 12 weeks; P0=85,560 (vehicle) and P0=23,911 (dmPGE2 treated). Chimerism in PB and CRU analysis is shown at 12 weeks (Mean±SEM). Data represent 2 pooled experiments, n=5 mice/group/expt., each assayed individually.
This model permits quantitative comparison of engraftment and competitiveness of HSPC from control and dmPGE2 treatment groups within the same animal (FIG. 1A), as well as endogenous repopulation of host cells.
For head-to-head competitive analysis, WBM from CD45.1 and CD45.2 mice were treated with vehicle or dmPGE2 and mixed with 2×10^5 competitor marrow cells from CD45.1/CD45.2 mice at various ratios and transplanted into lethally-irradiated CD45.1/CD45.2 mice. The proportion of CD45.1, CD45.2, and CD45.1/CD45.2 cells in PB was determined monthly. For secondary, tertiary and quaternary transplants, 2×10^6 WBM from previously transplanted CD45.1/CD45.2 mice at a 1:1 ratio were injected into lethally-irradiated CD45.1/CD45.2 mice in non-competitive fashion. The proportion of CD45.1, CD45.2, and CD45.1/CD45.2 cells in PB was determined monthly. […] Data for 20 week primary transplant were from 2 pooled experiments, n=5 mice/group/experiment, each assayed individually. Data for secondary, tertiary, and quaternary transplants were from n=5 mice/group, each assayed individually

[2] = test system: SKL cells; assay: In vitro cell cycle analysis; assay type: cell-based, mouse
Description: For in vitro cell cycle analysis, Lin^neg cells were treated with either 1 microMolar dmPGE2 or vehicle for 2 hours, washed, and cultured in Stem Cell Pro Media (Stem Cell Technologies) with rmSCF (50 ng/ml) (R&D Systems, Minneapolis, Minn.), rhFlt-3 and rhTPO (100 ng/ml each) (Immunex, Seattle, Wash.). After 20 hours, cells were stained for SKL, fixed and permeabilized, and stained with 7AAD (BD Biosciences, San Jose, Calif.). The proportion of SKL cells in S+G2/M phase was determined by measuring DNA content by FACS. For in vivo cell cycle analysis, CD45.2 mice were lethally irradiated and transplanted with 5×10^6 Lin^neg cells from CD45.1 mice treated with either 1 microMolar dmPGE2 or vehicle for 2 hours. At the time of transplant, recipient mice received 1 milligram/mL BrdU (Sigma Aldrich, St. Louis, Mo.) in drinking water and 1 mg per mouse BrdU I.P. After 16 hours, recipient marrow was isolated, lineage depleted, and stained for CD45.1, SKL and BrdU. The proportion of homed (CD45.1^+) SKL cells that were BrdU^+ was determined by FACS in individual mice.
Survivin regulates HSPC entry into and progression through cell cycle. Furthermore, β-catenin, implicated in HSPC proliferation and self-renewal, lies downstream of EP receptor pathways. […] To test this hypothesis, the cell cycle status of SKL cells pulsed with dmPGE2 or vehicle in vitro was analyzed. Referring now to FIG. 6A, pulse-exposure to dmPGE2 increased DNA content in SKL cells, an indication of increased cell cycling (left panels, upper right quadrant). In 3 experiments, 60% more SKL cells were in S+G2/M phase of the cell cycle after dmPGE2 treatment compared to controls (FIG. 6A right panel).
Lineage^neg cells were treated with either vehicle or 1 microMolar dmPGE2 for 2 hours, washed and cultured in media with rmSCF, rhFlt3 and rhTpo. After 20 hours cells were stained for SKL and Hoechst-33342 and Pyronin-Y. The proportion of SKL cells in cell cycle were measured by FACS. Referring now to FIG. 12, representative flow plot showing cell cycle distribution of gated SKL cells and combined data for fold increase in cell cycle for dmPGE2-treated cells compared to vehicle control from 3 experiments, Mean±SEM, n=9 mice, each assayed individually. […]
Referring now to FIG. 8, table summarizing data collected using Lin^neg bone marrow cells treated with either 1 microMolar dmPGE2 or vehicle for 2 hours and cultured in the presence of growth factors (50 ng/ml rmSCF, 100 ng/ml each of rhFlt-3 and rhTPO) for 20 hours, were stained for SLAM SKL, Hoechst-33342 and Pyronin-Y and the proportion of SLAM SKL cells in G0, G1, S and G2/M phase of the cell cycle determined by quantitation of the DNA and the RNA content by FACS. Data are Mean±SEM for n=9 mice, each assayed individually. ^(b)Percentage of cells in G1+S+G2M; Combined data for n=9 mice. ^(*^)P<0.05 compared to vehicle control.

[3] = 12 weeks post-transplant, vs vehicle treated cells

Row | SMILES | number of treated cells giving equivalent reconstitution vs control cells ([1]; frequency analysis, limiting dilution) | period over which enhanced engraftment / HSPC frequency was stable ([1]; primary transplant) | competitive advantage / increase in HSPC frequency of PGE2-pulsed HSPC ([1]; short-term ex vivo exposure, vs control cells, Poisson statistics and CRU) [fold] | cell cycle rate of CD150+48− (SLAM) SKL cells ([2]; in vitro, 1 microMolar 2 hours, 20 hours culture) | proportion of SKL cells actively in cell cycle ([2]; in vitro, within 24 hours post-treatment) | increase in proportion of HSPC in cell cycle / HSPC cell cycle activity ([2]; pulse exposure) [fold] | chimerism in peripheral blood [1, 3] | increase in HSPC frequency and competitive repopulating units (CRU) [1, 3] [fold] | reconstitution of B- and T-lymphoid and myeloid lineages in PB ([1]; 32 weeks post-transplant, vs untreated competitor or vehicle treated cells) | HSPC frequency analysis P0 (Poisson statistics) ([1]; at 12 weeks, pulsed cells) | chimerism in serial (secondary, tertiary, quaternary) transplants ([1]; no additional treatment before serial transplant) | increase in HSPC frequency ([1]; throughout 20 weeks of follow up post-transplant) [fold] | cell cycle rate of KL or Lin neg cells ([2]; in vitro) | more SKL cells in S+G2/M phase of the cell cycle ([2]; in vitro, 3 experiments, vs controls) [%]
1 | CCCCC[C@H](O)/C=C/[C@H]1[C@H](O)CC(=O)[C@@H]1C/C=C\CCCC(=O)O [PGE2, Prostaglandin E2] | one-fourth | 28 weeks and > 20 weeks | 4 | Increases the Cell Cycle Rate | increase | ~2 | – | – | – | – | – | – | – | –
2 | CCCCC(C)(C)[C@H](O)/C=C/[C@H]1[C@H](O)CC(=O)[C@@H]1C/C=C\CCCC(=O)O [dmPGE2, 16,16-dimethyl prostaglandin E2] | – | – | – | – | – | – | increased chimerism | ~4 | no discernible differences | 23,911 | also seen in secondary transplants; also recorded: Increased chimerism | ~4 | No significant effect | 60
